The structures appear in SMILES notation.

These results are taken from paper PMC8657793, “Synthesis, In Vitro and In Silico Anticancer Activity of New 4-Methylbenzamide Derivatives Containing 2,6-Substituted Purines as Potential Protein Kinases Inhibitors” (International Journal of Molecular Sciences, 2021).

In assay [1] the test system is HepG2 (human liver cancer). As to the kind of experiment: MTT anti-proliferative assay, HepG2. It counts as cell-based. The following applies: 48 h. The protocol: (§1) To determine the selectivity of the synthesized compounds 7–16 toward various cancer cells and normal human cells, the anti-proliferative activity against K562 (chronic myelogenous leukemia), HL-60 (promyelocytic leukemia), MCF-7 (breast adenocarcinoma), HeLa (cervix carcinoma), HepG2 (human liver cancer), A549 (lung carcinoma), OKP-GS (renal cell carcinoma), and normal cells RPMI 1788 (B lymphocyte, the human cell line) was investigated.
(§2) Each in vitro experiment was performed at least in triplicate and the standard deviation of absorbance was less than 10% of the mean. For the in vitro assays, a stock solution (1% DMSO in the appropriate buffer with the tested compound diluted under sonication) was prepared from which several dilutions were made with the appropriate buffer.
(§3) Human cell lines were obtained from the Institute of Cytology, Russian Academy of Sciences. The cell lines studied were maintained in RPMI 1640 medium (AppliChem, Darmstadt, Germany) supplemented with 20% (HL-60, RPMI 1788) fetal calf serum (HyClone, Cramlington, UK), in DMEM (A 549) and Eagle’s MEM (AppliChem) (MCF7, HeLa) with 10% fetal calf serum (HyClone). Cells were cultivated at 37 °C in a humidified atmosphere of 5% CO2. Cellular sensitivities to synthesized compounds and standards were measured with the MTT assay. Cells were plated in triplicate in 96-well plates (10^5 cells/well for suspended cell cultures and 5 × 10^3 cells/well for monolayer cultures); on the same day (suspended cell cultures) or on the following day (monolayer cultures), compounds were added at the appropriate dilutions. Anti-proliferative activity was studied at concentrations 0.1–50.0 µM. The reference drugs were imatinib, sorafenib and nilotinib. Plates were incubated under standard conditions for 48 h. Thereafter, 10 μL MTT (Sigma) in phosphate-buffered saline (5 mg/mL) was added. The plates were incubated for an additional 4 h and 150 μL dimethylsulphoxide (DMSO) was added to dissolve the formazan crystals. The optical density was read on a HALO MPR-95 Microplate Reader (Dynamica Scientific Ltd., Melbourne, Victoria, Australia) at 570 nm. The antiproliferative effects were taken as degrees of inhibition of tumor cells (%). The average of three parallel measurements was calculated for each concentration of test compound. The degree of cell growth suppression was plotted as a function of the logarithm of the concentration. The half maximal inhibitory concentration (IC50) was determined graphically for active compounds.
In general terms: Tetrazolium dyes change colour on reduction, which living cells bring about.

Assay [2] deals with RPMI 1788 (B lymphocyte, normal human lymphoblastoid cells). Put plainly: MTT assay on normal cells RPMI 1788. It counts as cell-based. The protocol: as §1, §2
as §3, with “Anti-proliferative activity was studied at concentrations 0.1–50.0 µM.” left out

Assay [3] concerns MCF-7 (breast adenocarcinoma). As to the kind of experiment: MTT anti-proliferative assay, MCF-7. It counts as cell-based. The following applies: Homo sapiens, MCF7, 48 h. As to the method: as §1, §2, §3
The next assay has as its target T1, PDGFRα (Homo sapiens, UniProt P16234).
T1 construct: purchased Promega
Put plainly: Kinase Selectivity Profiling System TK-1 / ADP-Glo, PDGFRα. It counts as biochemical. From the text: Considering the presence of a purine ring in the compounds under study, type 1 binding to protein kinases could be expected. We investigated the kinase selectivity of targeted compounds 7–16 against eight receptor tyrosine kinases including EGFR, HER2 and HER4 (epidermal growth factor receptors), IGF1R (insulin-like growth factor 1 receptor), InsR (insulin receptor), KDR (vascular endothelial growth factor receptor 2—VEGFR-2), and PDGFRα and PDGFRβ (platelet-derived growth factor receptors). The assay was performed using the Kinase Selectivity Profiling System TK-1 (Promega, Madison, WI, USA) and ADP-Glo™ Kinase assay kit (Promega, Madison, WI, USA). Kinase activity was measured by quantifying the […] following a kinase reaction. Enzymatic activity inhibition percentage caused by studied compounds was evaluated at the single concentration of 1 μM.
The Abl1 inhibitory activity assay was performed using Abl1 Kinase Enzyme System (Promega, Madison, WI, USA) and ADP-Glo™ Kinase assay kit (Promega, Madison, WI, USA) according to the Technical Manual. The general procedure was as follows: kinase (2.5 ng/reaction) was incubated with substrate (1 μg), compound (0.5 and 10µM) and ATP (50 μM) in a commercial buffer solution with a reaction volume of 5 μL. In every experiment, no-enzyme and no-compound control reactions were included to represent background luminescence (0% activity) and uninhibited kinase activity (100% activity), respectively. The assay 384-well plate was incubated at room temperature for 1 h. Afterwards, 5μL of ADP-Glo reagent was added into each well to stop the reaction and consume the […] within 40 min. At the end, 10 μL of kinase detection reagent was added into the well and incubated for 30 min to produce a luminescence signal. Kinase activity assays were performed in triplicate at each inhibitor concentration. The luminescence was measured with the help of a Tecan Infinite M200 Plate Reader. The luminescence data were analyzed using the computer software, Magellan™. Percent kinase activity (KA) was calculated by subtracting the average no-enzyme control luminescence values from all kinase-containing reactions with or without compound, then converting these net luminescence values to percent activity based on the no-compound control reactions representing 100% kinase activity. Inhibition (I, %) was calculated as 100%-KA.
The single-dose screening of kinase selectivity was performed using Kinase Selectivity Profiling System TK-1 (Promega, Madison, WI, USA) and ADP-Glo™ Kinase assay kit (Promega, Madison, WI, USA) according to Technical Manual. Kinase Selectivity Profiling System TK-1 includes a set of kinases from the tyrosine kinase family (EGFR, HER2, HER4, IGF1R, InsR, KDR, PDGFα, PDGFβ) in 8-tube strip format. The general procedure was as follow: kinase working stock (2 µL/reaction) was incubated with ATP/substrate working stock (1 µL) and compound (1 µM) in a commercial buffer solution with a reaction volume of 5 μL. The reaction conditions and inhibition (%) calculation were the same as in Section 3.3.1. Kinase activity assays were performed in duplicate at each inhibitor.
On the technique in general: In ADP-Glo the light output rises with the ADP produced.

T1 sequence (P16234 24-1089): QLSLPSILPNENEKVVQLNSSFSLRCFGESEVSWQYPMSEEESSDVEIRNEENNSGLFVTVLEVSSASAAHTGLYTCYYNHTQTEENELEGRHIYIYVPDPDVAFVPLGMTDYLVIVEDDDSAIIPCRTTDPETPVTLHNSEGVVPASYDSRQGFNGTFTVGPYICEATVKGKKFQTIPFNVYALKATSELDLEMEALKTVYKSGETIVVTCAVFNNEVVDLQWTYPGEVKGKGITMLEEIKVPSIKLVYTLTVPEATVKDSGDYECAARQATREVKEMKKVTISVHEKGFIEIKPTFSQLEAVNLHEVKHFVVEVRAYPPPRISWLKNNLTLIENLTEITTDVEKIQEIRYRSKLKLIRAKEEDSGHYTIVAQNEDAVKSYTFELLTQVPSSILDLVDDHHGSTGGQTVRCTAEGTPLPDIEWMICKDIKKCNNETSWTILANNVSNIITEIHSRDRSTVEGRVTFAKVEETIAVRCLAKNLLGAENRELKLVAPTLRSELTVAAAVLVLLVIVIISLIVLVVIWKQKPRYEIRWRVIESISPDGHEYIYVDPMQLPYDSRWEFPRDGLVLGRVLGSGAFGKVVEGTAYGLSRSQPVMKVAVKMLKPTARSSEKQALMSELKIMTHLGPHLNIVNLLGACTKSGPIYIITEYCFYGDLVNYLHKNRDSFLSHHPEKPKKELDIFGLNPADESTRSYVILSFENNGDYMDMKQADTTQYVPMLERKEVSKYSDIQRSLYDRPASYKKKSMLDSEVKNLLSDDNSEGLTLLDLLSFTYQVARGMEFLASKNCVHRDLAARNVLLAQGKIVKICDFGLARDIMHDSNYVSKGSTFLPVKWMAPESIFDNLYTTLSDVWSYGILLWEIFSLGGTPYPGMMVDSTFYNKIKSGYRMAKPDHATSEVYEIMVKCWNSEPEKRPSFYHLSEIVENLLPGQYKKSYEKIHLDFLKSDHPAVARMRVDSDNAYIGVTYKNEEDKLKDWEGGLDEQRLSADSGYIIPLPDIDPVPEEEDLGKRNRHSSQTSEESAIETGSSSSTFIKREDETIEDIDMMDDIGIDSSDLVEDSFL

Turning to `O=C(Nc1cccc(C(F)(F)F)c1)c1ccc(Cn2cnc3c(Cl)nc(Cl)nc32)cc1` [Compound 7, 4-((2,6-Dichloro-9H-purin-9-yl)methyl)-N-(3-(trifluoromethyl)phenyl)benzamide], the values for the IC50 in assay [1] and in assay [3] were 11.3 ± 1.44 µM and 12.3 ± 4.07 µM, respectively. Further, the inhibition – broadly, the share of the control response that was lost under treatment – at 100 µM in assay [2] amounted to 98.9%. Also, the inhibition at 1 µM on PDGFRα is 40%.
In the same order, the values of `Cc1cn(-c2cc(NC(=O)c3ccc(Cn4cnc5c(Cl)nc(Cl)nc54)cc3)cc(C(F)(F)F)c2)cn1` [Compound 10, 4-((2,6-Dichloro-9H-purin-9-yl)methyl)-N-(3-(4-methyl-1H-imidazol-1-yl)-5-(trifluoromethyl)-phenyl)benzamide] are 12.7 ± 0.7 µM, 8.1 ± 1.98 µM, 98.5% and 37%.
In the same order, the values of `COc1nc(Cl)nc2c1ncn2Cc1ccc(C(=O)Nc2cccc(C(F)(F)F)c2)cc1` [Compound 13, 4-((2-Chloro-6-methoxy-9H-purin-9-yl)methyl)-N-(3-(trifluoromethyl)phenyl)benzamide] are 9.16 ± 0.78 µM, 14.2 ± 2.71 µM, 100% and 10%.
For `COc1nc(Cl)nc2c1ncn2Cc1ccc(C(=O)Nc2cc(-n3cnc(C)c3)cc(C(F)(F)F)c2)cc1` [Compound 14, 4-((2-Chloro-6-methoxy-9H-purin-9-yl)methyl)-N-(3-(4-methyl-1H-imidazol-1-yl)-5-(trifluoromethyl)phenyl)benzamide], in that order: 28.5 ± 1.07 µM, 67.4 ± 3.29 µM, 99.1% and 16%.
For the compound `Nc1nc(Cl)nc2c1ncn2Cc1ccc(C(=O)Nc2cccc(C(F)(F)F)c2)cc1` [Compound 15, 4-((6-Amino-2-chloro-9H-purin-9-yl)methyl)-N-(3-(trifluoromethyl)phenyl)benzamide], the IC50 (commonly the concentration that gives 50% inhibition) was found to be 88.3 ± 2.54 µM in assay [1] and 76.8 ± 3.25 µM in assay [3]. In assay [2], the inhibition at 100 µM came to 93.5%. Also, at 1 µM the inhibition against PDGFRα was 16%.
In the same order, the values of `CNC(=O)c1cc(Oc2ccc(NC(=O)Nc3ccc(Cl)c(C(F)(F)F)c3)cc2)ccn1` [Sorafenib, sorafenib, reference compound] are 8.4 ± 2.8 µM, 13.7 ± 3.08 µM, 100% and 98%.
